Source: US10005818B2, “Derivative peptide compounds and methods of use” (REALTA HOLDINGS, LLC, priority 2010, dated 2018)
Square brackets hold non-standard residues; d marks the D form. Ends that are not written are not given here. Peptide text beside a SMILES is read from it. Sar = CNCC(=O)O

Key:
[1] = tested on: complement activation in factor B-depleted human sera; assay type: biochemical
Procedure: Peptides were diluted to 0.77 mM in factor B-depleted human sera (Complement Technologies, Inc.) and incubated for 1 hour at 37° C. These peptides were then diluted with GVBS^++ to equal 2.5/s serum, of which 0.25 ml was combined with 0.4 ml of GVBS^++ and 0.1 ml of sensitized sheep red blood cells (RBCs) and again incubated for 1 hour at 37° C. The procedure was stopped by the addition of 4.0 ml of GVBS^−−, centrifuged for 5 minutes at 1,620×g, and the absorbance of the supernatants was read at 412 nm in a spectrophotometer. The percent lysis of each sample was standardized to that of the serum only control.
The final concentration of peptide in factor B-depleted serum was 0.77 mM. Each peptide was evaluated in triplicate and the mean values are reported. […] In the hemolytic assay, soluble peptides are standardized to water and insoluble peptides standardized to DMSO.
Polar Assortant peptides were serially diluted in undiluted factor B-depleted human sera (Complement Technologies, Inc.) and incubated for 1 hour at 37° C. Water, GVBS^++ and DMSO were included as controls. These peptides were then diluted with GVBS^++ to equal 2.5/s serum, of which 0.25 ml was combined with 0.4 ml of GVBS^++ and 0.1 ml of sensitized sheep red blood cells (RBCs) and again incubated for 1 hour at 37° C. The procedure was stopped by the addition of 4.0 ml of GVBS^−−, centrifuged for 5 minutes at 1,620×g, and the absorbance of the supernatants was read at 412 nm in a spectrophotometer. The percent lysis of each sample was standardized to that of the serum only control.
The final concentration of peptide in factor B-depleted serum was 0.77 mM. […] In the hemolytic assay, soluble peptides were standardized to water and insoluble peptides standardized to DMSO.
The final concentration of peptide in factor B-depleted serum was 0.77 mM. […] In the hemolytic assay, soluble peptides are standardized to water and insoluble peptides standardized to DMSO.

Solubility in water = assay type: physicochemical
[2] = Table 5, sarcosine substitution peptides
[3] = Table 7, PEGylated and sarcosine/alanine substitution peptides

Compound | Hemolysis (%) [1] | Solubility in water (Solubility in water; Table 6, PEGylated PA peptides) | further results
CC[C@H](C)[C@H](N)C(=O)N[C@@H](C)C(=O)N(C)CC(=O)N[C@H](C(=O)N[C@@H](CC(C)C)C(=O)N[C@@H](CCC(=O)O)C(=O)N1CCC[C@H]1C(=O)N[C@H](C(=O)N[C@@H](CS)C(=O)N[C@@H](CS)C(=O)N[C@@H](CCC(N)=O)C(=O)N[C@@H](CCC(=O)O)C(=O)N[C@@H](CCCNC(=N)N)C(=O)N[C@@H](C)C(=O)N[C@@H](C)C(=O)O)[C@@H](C)CC)[C@@H](C)CC [PA-L3Sar] (H-IA[Sar]ILEPICCQERAA-OH; N-terminus and C-terminus assumed) | 87.36% | – | Solubility in water (Solubility in water; [2]): Yes
dPEG24-IALILEPICCQERAA-dPEG24 (cysteine pairing not given here) [dPEG24-PA-dPEG24] | – | – | inhibition of complement activity in hemolytic assay ([1]; factor B depleted serum): varying degrees of complement inhibition; solubility in water / aqueous solutions (Solubility in water): soluble in water
CC[C@H](C)[C@H](N)C(=O)N[C@@H](C)C(=O)N[C@@H](CC(C)C)C(=O)N[C@H](C(=O)N[C@@H](CC(C)C)C(=O)N[C@@H](CCC(=O)O)C(=O)N(C)CC(=O)N[C@H](C(=O)N[C@@H](CS)C(=O)N[C@@H](CS)C(=O)N(C)CC(=O)N[C@@H](CCC(=O)O)C(=O)N[C@@H](CCCNC(=N)N)C(=O)N[C@@H](C)C(=O)N[C@@H](C)C(=O)O)[C@@H](C)CC)[C@@H](C)CC [Peptide Q11SarP7Sar, IALILE(Sar)ICC(Sar)ERAA] (H-IALILE[Sar]ICC[Sar]ERAA-OH; N-terminus and C-terminus assumed) | 3.22% | – | Solubility in water (Solubility in water; [3]): Yes
CC[C@H](C)[C@H](N)C(=O)N[C@@H](C)C(=O)N[C@@H](CC(C)C)C(=O)N[C@H](C(=O)N[C@@H](CC(C)C)C(=O)N[C@@H](CCC(=O)O)C(=O)N1CCC[C@H]1C(=O)N[C@H](C(=O)N[C@@H](CS)C(=O)N[C@@H](CS)C(=O)N[C@@H](CCC(N)=O)C(=O)N[C@@H](CCC(=O)O)C(=O)N[C@@H](CCCNC(=N)N)C(=O)N[C@@H](C)C(=O)N[C@@H](C)C(=O)NCCOCCOCCOCCOCCOCCOCCOCCOCCOCCOCCOCCOCCC(=O)O)[C@@H](C)CC)[C@@H](C)CC [PA-dPEG12] | – | Yes | –
CC[C@H](C)[C@H](N)C(=O)N[C@@H](C)C(=O)N[C@@H](CC(C)C)C(=O)N[C@H](C(=O)N[C@@H](CC(C)C)C(=O)N[C@@H](C)C(=O)N1CCC[C@H]1C(=O)N[C@H](C(=O)N(C)CC(=O)N[C@@H](CS)C(=O)N[C@@H](CCC(N)=O)C(=O)N[C@@H](C)C(=O)N[C@@H](CCCNC(=N)N)C(=O)N[C@@H](C)C(=O)N[C@@H](C)C(=O)O)[C@@H](C)CC)[C@@H](C)CC [Peptide E6AE12AC9Sar] (H-IALILAPI[Sar]CQARAA-OH) | 2.99% | – | Solubility in water (Solubility in water; [3]): No
CC[C@H](C)[C@H](N)C(=O)N[C@@H](C)C(=O)N[C@@H](CC(C)C)C(=O)N[C@H](C(=O)N[C@@H](CC(C)C)C(=O)N[C@@H](CCC(=O)O)C(=O)N1CCC[C@H]1C(=O)N[C@H](C(=O)N[C@@H](CS)C(=O)N[C@@H](CS)C(=O)N[C@@H](CCC(N)=O)C(=O)N[C@@H](CCC(=O)O)C(=O)N[C@@H](CCCNC(=N)N)C(=O)N[C@@H](C)C(=O)N[C@@H](C)C(=O)NCCOCCOCCC(=O)O)[C@@H](C)CC)[C@@H](C)CC [PA-dPEG02] | – | Yes | –
CC[C@H](C)[C@H](N)C(=O)N[C@@H](C)C(=O)N[C@@H](CC(C)C)C(=O)N[C@H](C(=O)N[C@@H](CC(C)C)C(=O)N[C@@H](CCC(=O)O)C(=O)N1CCC[C@H]1C(=O)N[C@H](C(=O)N[C@@H](CS)C(=O)N[C@@H](CS)C(=O)N[C@@H](CCC(N)=O)C(=O)N[C@@H](CCC(=O)O)C(=O)N[C@@H](CCCNC(=N)N)C(=O)N[C@@H](C)C(=O)N[C@@H](C)C(=O)NCCOCCOCCOCCOCCOCCOCCOCCOCCOCCOCCOCCOCCOCCOCCOCCOCCOCCOCCOCCOCCC(=O)O)[C@@H](C)CC)[C@@H](C)CC [PA-dPEG20] | – | Yes | –
CC[C@H](C)[C@H](N)C(=O)N[C@@H](C)C(=O)N[C@@H](CC(C)C)C(=O)N[C@H](C(=O)N[C@@H](CC(C)C)C(=O)N[C@@H](CCC(=O)O)C(=O)N1CCC[C@H]1C(=O)N[C@H](C(=O)N[C@@H](CS)C(=O)N[C@@H](CS)C(=O)N[C@@H](CCC(N)=O)C(=O)N[C@@H](CCC(=O)O)C(=O)N[C@@H](CCCNC(=N)N)C(=O)N[C@@H](C)C(=O)N[C@@H](C)C(=O)NCCOCCOCCOCCC(=O)O)[C@@H](C)CC)[C@@H](C)CC [PA-dPEG03] | – | Yes | –
CC[C@H](C)[C@H](N)C(=O)N[C@@H](C)C(=O)N[C@@H](CC(C)C)C(=O)N[C@H](C(=O)N[C@@H](CC(C)C)C(=O)N[C@@H](CCC(=O)O)C(=O)N1CCC[C@H]1C(=O)N[C@H](C(=O)N[C@@H](CS)C(=O)N[C@@H](CS)C(=O)N[C@@H](CCC(N)=O)C(=O)N[C@@H](CCC(=O)O)C(=O)N[C@@H](CCCNC(=N)N)C(=O)N[C@@H](C)C(=O)N[C@@H](C)C(=O)NCCOCCOCCOCCOCCOCCOCCOCCOCCC(=O)O)[C@@H](C)CC)[C@@H](C)CC [PA-dPEG08] | – | Yes | –
CC[C@H](C)[C@H](N)C(=O)N[C@@H](C)C(=O)N[C@@H](CC(C)C)C(=O)N[C@H](C(=O)N[C@@H](CC(C)C)C(=O)N[C@@H](CCC(=O)O)C(=O)N1CCC[C@H]1C(=O)N[C@H](C(=O)N[C@@H](CS)C(=O)N[C@@H](CS)C(=O)N[C@@H](CCC(N)=O)C(=O)N[C@@H](CCC(=O)O)C(=O)N[C@@H](CCCNC(=N)N)C(=O)N(C)CC(=O)N[C@@H](C)C(=O)O)[C@@H](C)CC)[C@@H](C)CC [PA-A14Sar] | 3.88% | – | Solubility in water (Solubility in water; [2]): No
ALILEPICC[Sar]ERAA (cysteine pairing not given here) [PA-Q11Sar] | 3.02% | – | Solubility in water (Solubility in water; [2]): No
CC[C@H](C)[C@H](N)C(=O)N[C@@H](C)C(=O)N[C@@H](CC(C)C)C(=O)N[C@H](C(=O)N[C@@H](CC(C)C)C(=O)N[C@@H](CCC(=O)O)C(=O)N1CCC[C@H]1C(=O)N(C)CC(=O)N[C@@H](CS)C(=O)N[C@@H](CS)C(=O)N[C@@H](CCC(N)=O)C(=O)N[C@@H](CCC(=O)O)C(=O)N[C@@H](CCCNC(=N)N)C(=O)N[C@@H](C)C(=O)N[C@@H](C)C(=O)O)[C@@H](C)CC [PA-I8Sar, IALILEP(Sar)CCQERAA] | 33.92% | – | Solubility in water (Solubility in water; [2]): Yes
CC[C@H](C)[C@H](N)C(=O)N[C@@H](C)C(=O)N[C@@H](CC(C)C)C(=O)N[C@H](C(=O)N[C@@H](CC(C)C)C(=O)N[C@@H](CCC(=O)O)C(=O)N(C)CC(=O)N[C@H](C(=O)N[C@@H](CS)C(=O)N[C@@H](CS)C(=O)N[C@@H](CCC(N)=O)C(=O)N[C@@H](CCC(=O)O)C(=O)N(C)CC(=O)N[C@@H](C)C(=O)N[C@@H](C)C(=O)O)[C@@H](C)CC)[C@@H](C)CC [Peptide R13SarP7Sar, IALILE(Sar)ICCQE(Sar)AA] (H-IALILE[Sar]ICCQE[Sar]AA-OH) | 26.35% | – | Solubility in water (Solubility in water; [3]): No
CC[C@H](C)[C@H](N)C(=O)N[C@@H](C)C(=O)N[C@@H](CC(C)C)C(=O)N[C@H](C(=O)N[C@@H](CC(C)C)C(=O)N[C@@H](CCC(=O)O)C(=O)N1CCC[C@H]1C(=O)N[C@H](C(=O)N[C@@H](CS)C(=O)N[C@@H](CS)C(=O)N[C@@H](CCC(N)=O)C(=O)N[C@@H](CCC(=O)O)C(=O)N[C@@H](CCCNC(=N)N)C(=O)N[C@@H](C)C(=O)N[C@@H](C)C(=O)NCCOCCOCCOCCOCCOCCOCCOCCOCCOCCOCCOCCOCCOCCOCCOCCOCCC(=O)O)[C@@H](C)CC)[C@@H](C)CC [PA-dPEG16] | – | Yes | –
CC[C@H](C)[C@H](N)C(=O)N[C@@H](C)C(=O)N[C@@H](CC(C)C)C(=O)N[C@H](C(=O)N[C@@H](CC(C)C)C(=O)N[C@@H](CCC(=O)O)C(=O)N1CCC[C@H]1C(=O)N[C@H](C(=O)N[C@@H](CS)C(=O)N[C@@H](CS)C(=O)N[C@@H](CCC(N)=O)C(=O)N[C@@H](CCC(=O)O)C(=O)N[C@@H](CCCNC(=N)N)C(=O)N[C@@H](C)C(=O)N[C@@H](C)C(=O)NCCOCCOCCOCCOCCC(=O)O)[C@@H](C)CC)[C@@H](C)CC [PA-dPEG04] | – | Yes | –
CC[C@H](C)[C@H](N)C(=O)N[C@@H](C)C(=O)N[C@@H](CC(C)C)C(=O)N[C@H](C(=O)N[C@@H](CC(C)C)C(=O)N[C@@H](CCC(=O)O)C(=O)N1CCC[C@H]1C(=O)N[C@H](C(=O)N[C@@H](CS)C(=O)N[C@@H](CS)C(=O)N[C@@H](CCC(N)=O)C(=O)N[C@@H](CCC(=O)O)C(=O)N[C@@H](CCCNC(=N)N)C(=O)N[C@@H](C)C(=O)N[C@@H](C)C(=O)NCCOCCOCCOCCOCCOCCOCCC(=O)O)[C@@H](C)CC)[C@@H](C)CC [PA-dPEG06] | – | No | –
CC[C@H](C)[C@H](N)C(=O)N[C@@H](C)C(=O)N[C@@H](CC(C)C)C(=O)N[C@H](C(=O)N[C@@H](CC(C)C)C(=O)N[C@@H](CCC(=O)O)C(=O)N1CCC[C@H]1C(=O)N[C@H](C(=O)N[C@@H](CS)C(=O)N[C@@H](CS)C(=O)N[C@@H](CCC(N)=O)C(=O)N[C@@H](CCC(=O)O)C(=O)N[C@@H](CCCNC(=N)N)C(=O)N[C@@H](C)C(=O)N[C@@H](C)C(=O)O)[C@@H](C)CC)[C@@H](C)CC [PA] | – | – | solubility in water / aqueous solutions (Solubility in water): low solubility; Solubility in water (Solubility in water; [2]): No
